Reference: patent US20230372434A1, “METHOD OF TREATING FIBROSIS WITH A COMBINATION THERAPY” (COHBAR, INC., priority 2020, published 2023)
Square brackets hold non-standard residues; d marks the D form. Primed or numbered codes have the meaning given here. Ends that are not written are not given here. PEG12′ = not defined here; Nle = CCCC[C@H](N)C(=O)O

Tests used:
[1] = test system: established lung fibrosis induced by bleomycin in male C57BL/6 mice; assay: Therapeutic mouse model of idiopathic pulmonary fibrosis, peptides alone (Example 2); type: in vivo
Procedure: The effect of the peptides on the progression of established lung fibrosis were assessed by monitoring lung fibrosis, lung weight, inflammatory cells in bronchoalveolar lavage fluid (BALF), soluble collagen in BALF, cytokine secretion in BALF, and body weight change in a therapeutic mouse model of idiopathic pulmonary fibrosis. Lung fibrosis was induced in lungs of male C57BL/6 mice between the ages of 6 to 8 weeks by nasophayngeal administration of bleomycin (1.5 U/kg using bleomycin clinical formulation diluted in PBS). A control group of animals were administered saline by the nasopharyngeal route (no-bleomycin control group). After one week, bleomycin-treated animals were randomized to treatment groups (N=10 per group) by body weight and treated daily with vehicle control, nintedanib positive control (60 mg/kg/day PO) or peptide (5 or 15 mg/kg/day by intraperitoneal injection). After 14 days of treatment (Day 21), lungs were removed and weighed. The post-caval lobe was separated and snap frozen. The lungs were flushed with Hanks Buffer and bronchoalveolar lavage fluid (BALF) was harvested from each animal Total BALF leukocyte were counted. Slides were prepared from the remaining BALF leukocytes, fixed and stained with May Geimsa stain and the differential counts were recorded manually. BALF was evaluated for soluble collagen using a Sircol assay. Lungs were fixed in 10% neutral buffered formalin (NBF) for histopathological analysis. Fibrosis was assessed by histopathological analysis of H&E stained mouse lungs using an Ashcroft scoring system. Collagen deposition in lung tissue was assessed by histopathological analysis of Masson's Trichrome stained mouse lungs using a standard scoring system for severity.

[2] = test system: established lung fibrosis induced by bleomycin in male C57BL/6 mice; assay: Therapeutic mouse model of idiopathic pulmonary fibrosis, peptide combined with nintedanib (Example 1); type: in vivo; conditions: peptide 5 mg/kg/day IP; for Mean Pro-inflammatory Cytokine Level IFNγ / Mean Pro-inflammatory Cytokine Level IL-1β / Mean Pro-inflammatory Cytokine Level IL-6 / Mean Pro-inflammatory Cytokine Level KC/GRO / Mean Pro-inflammatory Cytokine Level MCP-1 / Mean Pro-inflammatory Cytokine Level MIP-1α / Mean Pro-inflammatory Cytokine Level TNFα: BALF, MSD; for Mean Pro-inflammatory Cytokine Level IFNγ / Mean Pro-inflammatory Cytokine Level IL-1β / Mean Pro-inflammatory Cytokine Level IL-6 / Mean Pro-inflammatory Cytokine Level KC/GRO / Mean Pro-inflammatory Cytokine Level MCP-1 / Mean Pro-inflammatory Cytokine Level MIP-1α / Mean Pro-inflammatory Cytokine Level TNFα / Mean (SEM) Number of Lymphocytes in BALF / Mean (SEM) Number of Macrophages in BALF / Mean (SEM) Number of Neutrophils in BALF: Day 21, nintedanib 60 mg/kg/day PO; for Mean (SEM) Normalized Lung Weight / Mean (SEM) Ashcroft Score / Mean (SEM) Collagen Deposition Score in Lung Tissue / Mean (SEM) Soluble Collagen Content in BALF: Day 21 after 14 days of daily treatment, nintedanib 60 mg/kg/day PO; for Mean (SEM) Ashcroft Score: H&E; for Mean (SEM) Collagen Deposition Score in Lung Tissue: Masson's Trichrome; for Mean (SEM) Soluble Collagen Content in BALF: Sircol assay
Procedure: The effect of combining the peptides of Formula I with a second antifibrotic drug on the progression of established lung fibrosis were assessed by monitoring lung fibrosis, lung weight, inflammatory cells in bronchoalveolar lavage fluid (BALF), soluble collagen in BALF, cytokine secretion, and body weight change in a therapeutic mouse model of idiopathic pulmonary fibrosis. Lung fibrosis was induced in lungs of male C57BL/6 mice between the ages of 6 to 8 weeks by nasophayngeal administration of bleomycin (1.5U/kg using bleomycin clinical formulation diluted in PBS). A control group of animals were administered saline by the nasopharyngeal route (no-bleomycin control group). After one week, bleomycin-treated animals were randomized to treatment groups (N=10 per group) by body weight and treated daily with vehicle control, nintedanib (60 mg/kg/day PO), peptide (5 mg/kg/day by intraperitoneal injection), or the combination of nintedanib (60 mg/kg/day PO) and peptide (5 mg/kg/day by intraperitoneal injection). After 14 days of treatment (Day 21), lungs were removed and weighed. The post-caval lobe was separated and snap frozen. The lungs were flushed with Hanks Buffer and bronchoalveolar lavage fluid (BALF) was harvested from each animal Differential cell counts in BALF were obtained. Levels of pro-inflammatory cytokines in BALF were determined using a meso scale discovery (MSD) system. Slides were prepared from the remaining BALF leukocytes, fixed and stained with May Geimsa stain and the differential counts were recorded manually. BALF was evaluated for soluble collagen using a Sircol assay. Lungs were fixed in 10% neutral buffered formalin (NBF) for histopathological analysis. Fibrosis was assessed by histopathological analysis of H&E stained mouse lungs using an Ashcroft scoring system. Collagen deposition in lung tissue was assessed by histopathological analysis of Masson's Trichrome stained mouse lungs using a standard scoring system for severity.

Row | Compound | Mean (SEM) Ashcroft Score ([1]; Day 21, 5 mg/kg/day IP) | Mean (SEM) Collagen Content in BALF ([1]; Day 21, 5 mg/kg/day IP) | Mean (SEM) Collagen Deposition Score in Lung Tissue ([1]; Day 21, 5 mg/kg/day IP) | Mean (SEM) Normalized Lung Weight ([1]; Day 21, 5 mg/kg/day IP) | Mean (SEM) Number of Lymphocytes in BALF ([1]; Day 21, 5 mg/kg/day IP) | Mean (SEM) Number of Macrophages in BALF ([1]; Day 21, 5 mg/kg/day IP) | Mean (SEM) Number of Neutrophils in BALF ([1]; Day 21, 5 mg/kg/day IP) | Mean (SEM) Ashcroft Score ([1]; Day 21, 15 mg/kg/day IP) | Mean (SEM) Collagen Content in BALF ([1]; Day 21, 15 mg/kg/day IP) | Mean (SEM) Collagen Deposition Score in Lung Tissue ([1]; Day 21, 15 mg/kg/day IP) | Mean (SEM) Normalized Lung Weight ([1]; Day 21, 15 mg/kg/day IP) | Mean (SEM) Number of Lymphocytes in BALF ([1]; Day 21, 15 mg/kg/day IP) | Mean (SEM) Number of Macrophages in BALF ([1]; Day 21, 15 mg/kg/day IP) | Mean (SEM) Number of Neutrophils in BALF ([1]; Day 21, 15 mg/kg/day IP) | Mean Pro-inflammatory Cytokine Level IFNγ [2] [pg/mL] | Mean Pro-inflammatory Cytokine Level IL-1β [2] [pg/mL] | Mean Pro-inflammatory Cytokine Level IL-6 [2] [pg/mL] | Mean Pro-inflammatory Cytokine Level KC/GRO [2] [pg/mL] | Mean Pro-inflammatory Cytokine Level MCP-1 [2] [pg/mL] | Mean Pro-inflammatory Cytokine Level MIP-1α [2] [pg/mL] | further results
1 | RVIR(Nle)CLGVGLLGDL(dA)GK{PEG12} (RVIR[Nle]CLGVGLLGDL[dA]GK(PEG12′); also: homodimer, disulfide at Cys6) [SEQ ID NO: 32] | 2.26 (0.27) | 0.074 (0.019) mg/mL | 2.20 (0.25) | 1.17 (0.03) | 946 (579) | 5530 (1090) | 61 (61) | 2.26 (0.35) | 0.091 (0.016) mg/mL | 2.10 (0.35) | 1.20 (0.05) | 1270 (584) | 5030 (974) | 96 (64) | 0.020 | 0.07 | 269 | 21.5 | 29.7 | 0.95 | Mean Pro-inflammatory Cytokine Level TNFα [2]: 3.05 pg/mL; Mean (SEM) Number of Lymphocytes in BALF [2]: 28600 (5480); Mean (SEM) Number of Macrophages in BALF [2]: 86600 (7070); Mean (SEM) Number of Neutrophils in BALF [2]: 5850 (2220); Mean (SEM) Normalized Lung Weight [2]: 1.57 (0.20); Mean (SEM) Ashcroft Score [2]: 3.12 (0.45); Mean (SEM) Collagen Deposition Score in Lung Tissue [2]: 2.56 (0.48); Mean (SEM) Soluble Collagen Content in BALF [2]: 0.058 (0.005) mg/mL
2 | RVIRACLGVGLLGDL(dA)GK{PEG12} (RVIRACLGVGLLGDL[dA]GK(PEG12′); also: homodimer) [SEQ ID NO: 30] | 1.92 (0.21) | 0.071 (0.020) mg/mL | 1.67 (0.29) | 1.15 (0.03) | 1210 (664) | 5070 (1130) | 0 (0) | 2.00 (0.37) | 0.063 (0.007) mg/mL | 1.80 (0.33) | 1.22 (0.11) | 896 (254) | 3780 (559) | 122 (88) | 0.037 | 0.03 | 64.6 | 16.7 | 7.59 | 0.52 | Mean Pro-inflammatory Cytokine Level TNFα [2]: 2.85 pg/mL; Mean (SEM) Number of Lymphocytes in BALF [2]: 8930 (3350); Mean (SEM) Number of Macrophages in BALF [2]: 41700 (5740); Mean (SEM) Number of Neutrophils in BALF [2]: 1830 (1080); Mean (SEM) Normalized Lung Weight [2]: 1.36 (0.10); Mean (SEM) Ashcroft Score [2]: 2.93 (0.33); Mean (SEM) Collagen Deposition Score in Lung Tissue [2]: 2.30 (0.26); Mean (SEM) Soluble Collagen Content in BALF [2]: 0.067 (0.013) mg/mL
3 | COC(=O)c1ccc2c(c1)NC(=O)/C2=C(\Nc1ccc(N(C)C(=O)CN2CCN(C)CC2)cc1)c1ccccc1 [Nintedanib, nintedanib, reference compound] |  |  |  |  |  |  |  |  |  |  |  |  |  |  | 0.019 | 0.50 | 384 | 29.3 | 35.8 | 1.05 | Mean (SEM) Ashcroft Score ([1]; Day 21, 60 mg/kg/day PO): 2.35 (0.38); Mean (SEM) Collagen Content in BALF ([1]; Day 21, 60 mg/kg/day PO): 0.061 (0.011) mg/mL; Mean (SEM) Collagen Deposition Score in Lung Tissue ([1]; Day 21, 60 mg/kg/day PO): 2.20 (0.36); Mean (SEM) Normalized Lung Weight ([1]; Day 21, 60 mg/kg/day PO): 1.16 (0.07); Mean (SEM) Number of Lymphocytes in BALF ([1]; Day 21, 60 mg/kg/day PO): 1180 (631); Mean (SEM) Number of Macrophages in BALF ([1]; Day 21, 60 mg/kg/day PO): 5030 (823); Mean (SEM) Number of Neutrophils in BALF ([1]; Day 21, 60 mg/kg/day PO): 201 (77); Mean Pro-inflammatory Cytokine Level TNFα [2]: 2.76 pg/mL; Mean (SEM) Number of Lymphocytes in BALF [2]: 18700 (5200); Mean (SEM) Number of Macrophages in BALF [2]: 49200 (6450); Mean (SEM) Number of Neutrophils in BALF [2]: 3040 (1370); Mean (SEM) Normalized Lung Weight [2]: 1.49 (0.17); Mean (SEM) Ashcroft Score [2]: 2.82 (0.39); Mean (SEM) Collagen Deposition Score in Lung Tissue [2]: 2.22 (0.43); Mean (SEM) Soluble Collagen Content in BALF [2]: 0.048 (0.005) mg/mL
4 | RVIRACLGVGLLGDLAGK{PEG12} (RVIRACLGVGLLGDLAGK(PEG12′); also: homodimer, disulfide at Cys6) [SEQ ID NO: 36] | 2.65 (0.40) | 0.081 (0.010) mg/mL | 2.50 (0.37) | 1.19 (0.06) | 987 (316) | 5180 (1030) | 113 (60) | 3.33 (0.33) | 0.068 (0.008) mg/mL | 2.89 (0.35) | 1.32 (0.12) | 884 (442) | 6430 (930) | 165 (140) |  |  |  |  |  |  | 
5 | RVIRMCLGVGLLGDLAGK{PEG12} (RVIRMCLGVGLLGDLAGK(PEG12′); also: homodimer, disulfide at Cys6) [SEQ ID NO: 28] |  |  |  |  |  |  |  | 2.24 (0.25) | 0.080 (0.016) mg/mL | 2.00 (0.26) | 1.27 (0.05) | 1210 (233) | 6340 (792) | 261 (117) |  |  |  |  |  |  | 
